Data published in PMC12615753, “Glutathione as a taste modulator: molecular mechanisms of interaction with umami and sweet taste receptors” (Food Chemistry: Molecular Sciences, 2025).

What was measured:
hTAS1R1 D192E/rTAS1R3 = biological target: T1, hTAS1R1 D192E/rTAS1R3 (UniProt Q7RTX1+Q923K1, D192E); test: cell-based; design: species or system human, rat
T1 construct: The cDNA coding region of rTAS1R3 was synthesized with optimized-codon usage for human expression; expressed in transfected cells; host or cells: HEK293T/17
T1 sequence (Q7RTX1 21-841 D192E, one chain of several): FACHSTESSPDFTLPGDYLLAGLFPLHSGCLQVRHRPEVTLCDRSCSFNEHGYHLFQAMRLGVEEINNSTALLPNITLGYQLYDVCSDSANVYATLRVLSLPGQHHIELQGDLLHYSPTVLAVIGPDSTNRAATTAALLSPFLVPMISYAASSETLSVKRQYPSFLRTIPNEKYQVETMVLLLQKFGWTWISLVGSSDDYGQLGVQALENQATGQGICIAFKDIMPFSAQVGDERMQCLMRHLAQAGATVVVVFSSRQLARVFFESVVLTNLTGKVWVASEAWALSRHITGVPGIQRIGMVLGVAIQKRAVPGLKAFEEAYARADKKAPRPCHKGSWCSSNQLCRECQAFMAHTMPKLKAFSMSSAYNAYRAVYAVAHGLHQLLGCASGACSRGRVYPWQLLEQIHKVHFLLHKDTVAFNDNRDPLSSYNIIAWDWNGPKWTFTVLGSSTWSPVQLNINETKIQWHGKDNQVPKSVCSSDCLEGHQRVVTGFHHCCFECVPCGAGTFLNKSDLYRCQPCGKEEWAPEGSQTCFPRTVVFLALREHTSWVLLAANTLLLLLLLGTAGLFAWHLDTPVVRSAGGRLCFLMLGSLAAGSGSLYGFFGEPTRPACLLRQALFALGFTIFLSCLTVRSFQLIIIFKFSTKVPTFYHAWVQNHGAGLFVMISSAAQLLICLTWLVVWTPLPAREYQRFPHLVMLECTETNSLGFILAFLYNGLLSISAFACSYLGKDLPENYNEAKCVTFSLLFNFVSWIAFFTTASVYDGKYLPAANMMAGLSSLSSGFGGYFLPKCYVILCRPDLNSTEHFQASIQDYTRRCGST
Excerpt: Chimeric Gα proteins, such as Gα16Gust44, Gα16Gi3 or Gα15i2, are widely used in the functional expression of TAS1R receptors ([Backes et al., 2015]; [Suess et al., 2015]; [Toda et al., 2021], [Toda et al., 2013], [Toda et al., 2018]; [Zhang et al., 2008]). Chimeric Gα15i2 (([Toda et al., 2013]), Supplementary data) was generated by replacing the last five residues of the C-terminal tail of rat Gα15i2 (EINLL) (UniProt number G3V6N8; https://www.uniprot.org/uniprot/) with the counterpart sequence from human GNAI2 (DCGLF) (UniProt number P04899-1) and cloning into the pcDNA3.1/Hygro vector (Invitrogen, Thermo Fisher Scientific, Illkirch, France) between the HindIII and NotI restriction sites, resulting in the plasmid pcDNA3.1-Gα15i2. Chimeric Gα16Gust44 construct have already been reported ([Raliou et al., 2011]). Briefly, Gα16Gust44 was generated by replacing the C-terminal of Gα16 with the C-terminal 44 residues of gustducin. As previously described, hTAS1R1 was amplified from human fungiform papillae cDNA and cloned and inserted into pcDNA3 (Invitrogen), generating pcDNA3-TAS1R1-WT (wild-type) ([Raliou et al., 2011]). […]

CaSR = settings: ref Ohsu et al., 2010; cited from earlier work
hTAS1R1 H71Y/rTAS1R3 = biological target: T2, hTAS1R1 H71Y/rTAS1R3 (UniProt Q7RTX1+Q923K1, H71Y); test: cell-based; format: cell-based, human, rat
T2 construct: UniProtKB number Q7RTX1–1); The cDNA coding region of rTAS1R3 was synthesized with optimized-codon usage for human expression; expressed in transfected cells; host or cells: HEK293T/17
T2 sequence (Q7RTX1 21-841 H71Y): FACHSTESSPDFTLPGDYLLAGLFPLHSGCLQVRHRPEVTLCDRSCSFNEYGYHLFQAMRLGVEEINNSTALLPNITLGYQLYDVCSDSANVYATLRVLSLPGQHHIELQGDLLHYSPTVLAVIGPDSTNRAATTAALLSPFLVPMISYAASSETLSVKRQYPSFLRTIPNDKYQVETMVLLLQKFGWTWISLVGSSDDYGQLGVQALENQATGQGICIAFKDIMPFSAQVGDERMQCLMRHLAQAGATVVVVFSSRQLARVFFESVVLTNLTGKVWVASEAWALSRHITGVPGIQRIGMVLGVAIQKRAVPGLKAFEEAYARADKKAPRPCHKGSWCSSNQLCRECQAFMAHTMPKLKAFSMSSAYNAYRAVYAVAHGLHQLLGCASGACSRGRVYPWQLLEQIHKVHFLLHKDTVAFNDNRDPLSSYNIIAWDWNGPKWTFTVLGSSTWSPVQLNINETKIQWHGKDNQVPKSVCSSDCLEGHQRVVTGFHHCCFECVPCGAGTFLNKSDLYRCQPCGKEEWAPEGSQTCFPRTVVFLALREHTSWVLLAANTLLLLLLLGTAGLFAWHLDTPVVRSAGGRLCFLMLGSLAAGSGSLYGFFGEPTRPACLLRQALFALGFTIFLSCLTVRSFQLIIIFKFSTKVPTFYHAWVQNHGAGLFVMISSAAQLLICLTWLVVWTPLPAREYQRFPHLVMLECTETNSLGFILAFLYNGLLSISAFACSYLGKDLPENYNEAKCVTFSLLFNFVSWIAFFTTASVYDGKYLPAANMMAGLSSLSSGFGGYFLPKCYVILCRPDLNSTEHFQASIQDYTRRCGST
T2 sequence (Q923K1 21-858): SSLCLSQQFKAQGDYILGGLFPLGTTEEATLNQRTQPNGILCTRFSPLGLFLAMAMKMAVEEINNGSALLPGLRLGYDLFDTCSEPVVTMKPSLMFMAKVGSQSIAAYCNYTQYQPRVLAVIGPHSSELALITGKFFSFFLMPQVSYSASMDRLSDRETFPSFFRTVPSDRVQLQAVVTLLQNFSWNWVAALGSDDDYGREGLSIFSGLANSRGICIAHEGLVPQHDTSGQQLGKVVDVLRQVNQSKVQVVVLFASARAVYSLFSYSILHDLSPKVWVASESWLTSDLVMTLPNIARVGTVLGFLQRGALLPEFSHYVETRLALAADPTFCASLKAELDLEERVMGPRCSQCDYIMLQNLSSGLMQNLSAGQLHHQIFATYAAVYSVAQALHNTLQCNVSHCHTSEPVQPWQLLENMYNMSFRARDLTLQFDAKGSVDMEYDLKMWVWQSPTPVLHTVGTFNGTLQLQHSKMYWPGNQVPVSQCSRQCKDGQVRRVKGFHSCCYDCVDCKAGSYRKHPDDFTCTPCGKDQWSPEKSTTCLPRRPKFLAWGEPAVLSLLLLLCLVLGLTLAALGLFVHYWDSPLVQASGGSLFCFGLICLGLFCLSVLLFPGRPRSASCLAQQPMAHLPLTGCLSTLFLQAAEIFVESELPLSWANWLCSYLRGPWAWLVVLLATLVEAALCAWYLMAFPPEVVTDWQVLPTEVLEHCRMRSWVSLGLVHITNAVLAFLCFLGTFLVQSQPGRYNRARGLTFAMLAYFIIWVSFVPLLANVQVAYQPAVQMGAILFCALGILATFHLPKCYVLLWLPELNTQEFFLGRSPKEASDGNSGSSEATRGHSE
Excerpt: Chimeric Gα proteins, such as Gα16Gust44, Gα16Gi3 or Gα15i2, are widely used in the functional expression of TAS1R receptors ([Backes et al., 2015]; [Suess et al., 2015]; [Toda et al., 2021], [Toda et al., 2013], [Toda et al., 2018]; [Zhang et al., 2008]). Chimeric Gα15i2 (([Toda et al., 2013]), Supplementary data) was generated by replacing the last five residues of the C-terminal tail of rat Gα15i2 (EINLL) (UniProt number G3V6N8; https://www.uniprot.org/uniprot/) with the counterpart sequence from human GNAI2 (DCGLF) (UniProt number P04899-1) and cloning into the pcDNA3.1/Hygro vector (Invitrogen, Thermo Fisher Scientific, Illkirch, France) between the HindIII and NotI restriction sites, resulting in the plasmid pcDNA3.1-Gα15i2. Chimeric Gα16Gust44 construct have already been reported ([Raliou et al., 2011]). Briefly, Gα16Gust44 was generated by replacing the C-terminal of Gα16 with the C-terminal 44 residues of gustducin. As previously described, hTAS1R1 was amplified from human fungiform papillae cDNA and cloned and inserted into pcDNA3 (Invitrogen), generating pcDNA3-TAS1R1-WT (wild-type) ([Raliou et al., 2011]). […] The cDNA coding region of rTAS1R3 was synthesized with optimized-codon usage for human expression (Genewiz) and was cloned and inserted into the mammalian pcDNA4/myc-HisA (Invitrogen) expression vector between the EcoRI and NotI restriction sites, resulting in the plasmid pcDNA4-rTAS1R3. […] The sequence integrity of all the plasmid constructs was verified via automated DNA sequencing (Genewiz).
The hTAS1R1 mutants were co-expressed with the rTAS1R3 subunit in HEK293 cells. […] As a control, the functionality of the mutated receptors was checked after stimulation with S807 (Fig. S8), which interacts with TAS1R1-TMD ([Zhang et al., 2008]).

TAS1R1/TAS1R3 = settings: ref Broadhead et al., 2011; Servant & Frerot, 2022; cited from earlier work
rTAS1R3 = rTAS1R3 (Rattus norvegicus, UniProt Q923K1); settings: GSH alone; Fig. 5C
Protocol: HEK293T/17 cells (ATCC CRL-11268) were seeded into clear bottom black 96-well plates coated with poly-D-lysine at a density of 32500 cells/well in 100 μL of DMEM containing 4.5 g/L glucose and supplemented with penicillin/streptomycin, 2 mM GlutaMAX and 10 % dialyzed fetal bovine serum. The plates were incubated for 24 h at 37 °C and 7.3 % CO2 in a humidified atmosphere. After incubation, using Fugene® 4 K (0.46 μL/well, Promega, Illkirch, France), the cells were transiently transfected with pcDNA3-hTAS1R1-WT (60 ng/well) or TAS1R1 mutants, pcDNA4-rTAS1R3 (60 ng/well), pcDNA3-Gα15i2 (10 ng/well), and pGP-CMV-GCaMP6s (Addgene #40753; 10 ng/well) as a genetically encoded calcium indicator. […] After 20 s of basal fluorescence calcium measurement, the cells were stimulated via automatic injection of a range of compounds in eight wells, and the signal emission was recorded for an additional 70 s, via a FlexStation 3® fluorometric microplate reader (Molecular Devices, San Jose, CA, USA). […] The emitted fluorescence was measured at a wavelength of 510 nm after excitation at 488 nm. […] For each well, the decrease in the raw fluorescence as the relative fluorescence changed was calculated as ΔF/F0. Replicates were averaged for the wells subjected to the same stimuli, the background signal was subtracted, and the fluorescence changes in mock-transfected cells were subtracted. […]

In the case of `N[C@@H](CCC(=O)N[C@@H](CS)C(=O)NCC(=O)O)C(=O)O` [GSH, γ-L-glutamyl-L-cysteinyl-glycine], the EC50 (hTAS1R1 D192E/rTAS1R3) is given as > 30 mM, the EC50 (CaSR) is given as 0.00071 mM and the EC50 (hTAS1R1 H71Y/rTAS1R3) is given as 12.4 mM. The “effect of the added compound (1 mM) on the response to L-Glu” value (hTAS1R1 H71Y/rTAS1R3; H71Y) was “did not affect”, the “Max ∆F/F0” value (hTAS1R1 H71Y/rTAS1R3; H71Y, GSH) was 0.65 ± 0.11 and the “R1 = mutant EC50/WT EC50” value (hTAS1R1 H71Y/rTAS1R3; H71Y, GSH) was 4.9. For the same compound, the EC50 (TAS1R1/TAS1R3) was 11.3 mM and the “response of transfected cells” value (rTAS1R3) was “did not respond”.
